{"source": "patent US20210100905A1", "about": "“APPLICATION OF COMPOUND OR TRADITIONAL CHINESE MEDICINE EXTRACT IN PREPARATION OF NUCLEIC ACID DELIVERY AGENT, AND RELATED PRODUCTS” (INSTITUTE OF BASIC MEDICAL SCIENCES CHINESE ACADEMY OF …, priority 2018, published 2021)", "key": {"[1]": {"system": "A549 cell (human lung adenocarcinoma cell)", "assay": "In vitro delivery of lipid nucleic acid mixture, RT-qPCR of intracellular small RNA", "assay_type": "cell-based", "details": "for delivery effect relative to that of RNAiMAX (real-time PCR): double-stranded HJT-sRNA-m7; for delivery of HJT-sRNA-m7 double-stranded RNA into A549 cells (real-time PCR): single lipid prepared by boiling or reverse evaporation method, RNA 100 nM, FIGS. 76, 91, 96, 99, 104, 106, 107; for delivery of HJT-sRNA-m7 single-stranded RNA into A549 cells (real-time PCR): single lipid, FIGS. 78, 92, 103; for abundance of sRNA of different sequences in the cells (Taqman probe): FIG. 11A-C, sRNA 200 nM, 3 hours, compared with the control", "experimental": "3.1 NCI-N87 cell (gastric cancer cell), MRC-5 cell (lung fibroblast), A549 cell (lung cancer cell) were cultured to logarithmic growth phase, and then plated to a six-well plate at cell density of 1×10^6/2 mL medium/well; MRC-5 cell was cultured in Eagle's MEM medium (MEM, Gibco); A549 cell was cultured in Ham's F-12 medium (HyClone); NCI-N87 cell was cultured in RPMI-1640 medium (HyClone); followed by incubation overnight at 37° C., and the follow-up experiments were performed after the cells were attached to the walls.\n3.3 After co-incubation with the small RNA for 3 hours, the cells were washed 2-3 times with PBS. The cells were harvested with TRIzol lysis buffer, and the total RNA was extracted. The abundance of small RNA that entered cells was detected by RT-qPCR, and the localization of RNA was detected by fluorescence in situ hybridization; protocols of each detection method were as follows:\n1) The sRNA was reverse transcribed to cDNA: Reverse Transcription Kit (High-Capacity cDNA Reverse Transcription Kits, Applied Biosystems, cat. No. 4368813) was used to reverse transcribe sRNA into cDNA by stem-loop method, and the reverse transcription system was as follows: RNA template (150 ng/μl) 10 μl, 10×RT buffer, 2.0 μl, 25× dNTP Mix (100 mM) 0.8 μl, U6 RT stem-loop primer 2.0 μl, HJT-sRNA-RT-m7 stem-loop primer 2.0 μl, MultiScribe™ reverse transcriptase 1.0 μl, RNase inhibitor 1.0 μl, nuclease-free H2O 1.2 μl, loaded into a PCR reactor after brief centrifugation, the reaction conditions were as follows: (1) 25° C., 10 min; (2) 37° C., 120 min; (3) 85° C., 5 min; (4) 4° C., termination of the reaction. 20 μl RNase-free ddH2O was added to make up the final volume to 40 μl after the reaction. The stem-loop primer used in the reverse transcription process was synthesized by Beijing Tsingke Biotechnology Co., Ltd.\n2) Quantitative PCR amplification reaction: the qPCR reaction system has a total volume of 10 μl, containing: 5 μL 2×SYBR Green Master Mix, 0.5 μl forward primer ([…]), 0.5 μl reverse primer (10 μM), 1 μl cDNA by reverse transcription, 3 RNase-free dH2O. LightCycler 480 fluorescence quantitative PCR instrument was used, and the PCR reaction conditions were: 95° C. for 5 min for pre-denaturation, followed by PCR amplification cycle: (1) 95° C., 10 s; (2) 55° C., 10 s; (3) 72° C. , 20 s; a total of 40 cycles; 40° C. for 10 s in the end to cool down. Both the forward and reverse primers of the amplification reaction were designed and synthesized by Beijing Tsingke Biotechnology Co., Ltd.\n3) The relative expression level was calculated by 2-ΔCt method.\n100 μl lipid in diethyl ether solution was prepared, and grouped according to the lipid numbers shown in Table 1 (the lipid concentrations are shown in the table below). To the lipid solution was added 20 μl nucleic acid solution (HJT sRNA or siRNA) at the volume ratio of 5:1, and sonicated for after 3 min. The diethyl ether was removed by evaporation at 55° C., and then 100 μl DEPC water was added for hydration to give nucleic acid lipid mixture.\n100 μL of the nucleic acid solution (HJT sRNA or siRNA) was added to 2-5 μL of the lipid in chloroform (the concentration was shown in Table 1), mixed, and heated at 80-100° C. for 15-30 min to give nucleic acid lipid mixture.\n3.1.1 MRC-5 cell (pulmonary embryonic fibroblast), A549 cell (human lung adenocarcinoma cell), Caco-2 cell (human colon adenocarcinoma cell) (purchased from the Cell Resource Center of the Institute of Basic Medical Sciences, Chinese Academy of Medical Sciences) were cultured to logarithmic growth phase, then plated into 12-well plates at a cell density of 6×10^5/1 mL medium/well; MRC-5 and Caco-2 cells were cultured in Eagle's MEM medium (MEM, Gibco); A549 cells were cultured in Ham's F-12 medium (HyClone); followed by incubation overnight at 37° C., and the follow-up experiments were performed after the cells were attached to the walls. […]"}, "[2]": {"system": "A549 cells", "assay": "Digital PCR (ddPCR) detection of the efficiency of nucleic acid delivery by lipid", "assay_type": "cell-based, human", "details": "boiling or reverse evaporation method; samples after 6 hours (No. 39: reverse evaporation, 6 and 12 hours)", "text": "2.1 Experimental materials: A549 cells were purchased from the Cell Center of the Institute of Basic Medical Sciences, Chinese Academy of Medical Sciences, TRIzol lysis buffer was purchased from Sigma, High capacity cRNA Reverse Transcription Kit was purchased from ABI, USA, and the digital PCR related reagents were purchased from Bio-Rad USA.\n(§1) 2.2 Experimental method: the total cellular RNA was collected and extracted by TRIzol lysis buffer according to the above methods, and reverse transcribed to cDNA using High capacity cRNA Reverse Transcription Kit, and the cDNA from different groups was subject to digital PCR reaction. Refering to the QX200 Droplet Reader and QuantaSoft Software manual for the protocols, the results were analyzed using QuantaSoft software.\nas §1, with “method:” for “method: the”, “total” for “total cellular”, “method,” for “methods,”, “subjected” for “subject”, “Refer” for “Refering”, “protocols;” for “protocols,”\n(§2) 2.2 Experimental method: Total RNA was collected and extracted by TRIzol lysis buffer according to the above method, and reverse transcribed to cDNA using TaqMan™ MicroRNA Reverse Transcription KitHigh, and the cDNA from different groups was subjected to digital PCR reaction. Refer to the QX200 Droplet Reader and QuantaSoft Software manual for the protocols; the results were analyzed using QuantaSoft software.\nas §2, with “reversed” for “reverse transcribed”, “High capacity cRNA” for “TaqMan™ MicroRNA”, “Kit,” for “KitHigh,”"}}, "note": "“Also recorded” adds a separate entry of the source.", "data": [{"smiles": "CCCCCCCC/C=C\\CCCCCCCCCCCCCC(=O)O[C@H](COC(=O)CCCCCCCCCCCCCC)COP(=O)(O)OCCN", "note": "[No. 64, 1-pentadecanoyl-2-nervonoyl-sn-glycero-3-phospho-ethanolamine]", "values": [{"measurement": "delivery effect relative to that of RNAiMAX (real-time PCR)", "setting": "[1]; boiling method", "value": "about 3 times that of RNAiMAX"}, {"measurement": "delivery of HJT-sRNA-m7 double-stranded RNA into A549 cells (real-time PCR)", "setting": "[1]", "value": "delivered HJT-sRNA-m7 double-stranded RNA into A549 cells"}]}, {"smiles": "CCCCCC/C=C\\CCCCCCCC(=O)O[C@H](COC(=O)CCCCCCCCCCCCCCC)COP(=O)(O)OCCN", "note": "[No. 38, (2-aminoethoxy) [(2R)-2-[(9Z)-hexadec-9-enoyloxy]-3-(hexadecanoyloxy)propoxy] phosphinic acid]", "values": [{"measurement": "delivery of HJT-sRNA-m7 dsRNA into A549 cells (ddPCR)", "setting": "[2]", "value": "could effectively deliver HJT-sRNA-m7 dsRNA into A549 cells"}, {"measurement": "delivery of HJT-sRNA-m7 double-stranded RNA into A549 cells (real-time PCR)", "setting": "[1]", "value": "delivered double-stranded RNA into A549 and MRC-5 cells"}, {"measurement": "delivery of HJT-sRNA-m7 single-stranded RNA into A549 cells (real-time PCR)", "setting": "[1]; boiling method", "value": "the efficiency of delivery was much higher than that of RNAiMAX"}]}, {"smiles": "CCCCC/C=C\\C/C=C\\CCCCCCCC(=O)O[C@H](COC(=O)CCCCCCCCCCCCCCCCC)COP(=O)([O-])OCC[N+](C)(C)C", "note": "[No. 11, trimethyl(2-{[(2R)-2-[(9Z, 12Z)-octadeca-9,12-dienoyloxy]-3-(octadecanoyloxy)propyl-phosphonato]oxy}ethyl) azanium]", "values": [{"measurement": "abundance of sRNA of different sequences in the cells (Taqman probe)", "setting": "[1]; reverse evaporation method", "value": "could effectively facilitate nucleic acid molecules of different sequences entry into various cells"}]}, {"smiles": "CCCCCCCC/C=C\\CCCCCCCCCCCC(=O)O[C@H](COC(=O)CCCCCCCCCCCCCCC)COP(=O)(O)OCCN", "note": "[No. 40, (2-aminoethoxy) [(2R)-2-[(13Z)-docos-13-enoyloxy]-3-(hexadecanoyloxy)propoxy] phosphinic acid]", "values": [{"measurement": "delivery of HJT-sRNA-m7 dsRNA into A549 cells (ddPCR)", "setting": "[2]", "value": "could effectively deliver HJT-sRNA-m7 dsRNA into A549 cells"}, {"measurement": "delivery effect relative to that of RNAiMAX (real-time PCR)", "setting": "[1]; reverse evaporation method", "value": "½"}, {"measurement": "delivery of HJT-sRNA-m7 double-stranded RNA into A549 cells (real-time PCR)", "setting": "[1]", "value": "delivered double-stranded RNA into A549 cells"}]}, {"smiles": "CCCCCCCCCCCCCCCCCCC[C@@H](O)[C@@H](N)CO", "note": "[No. 41, Sphinganine (d22:0)]", "values": [{"measurement": "delivery of HJT-sRNA-m7 dsRNA into A549 cells (ddPCR)", "setting": "[2]", "value": "could effectively deliver HJT-sRNA-m7 dsRNA into A549 cells; also recorded: the boiling method had better effects than reverse evaporation method"}, {"measurement": "delivery effect relative to that of RNAiMAX (real-time PCR)", "setting": "[1]; boiling method", "value": "about twice"}, {"measurement": "delivery effect relative to that of RNAiMAX (real-time PCR)", "setting": "[1]; reverse evaporation method", "value": "significantly higher than that of RNAiMAX"}, {"measurement": "delivery of HJT-sRNA-m7 double-stranded RNA into A549 cells (real-time PCR)", "setting": "[1]", "value": "delivered HJT-sRNA-m7 double-stranded RNA into A549 cells"}, {"measurement": "delivery of HJT-sRNA-m7 single-stranded RNA into A549 cells (real-time PCR)", "setting": "[1]; boiling method", "value": "delivered HJT-sRNA-m7 single-stranded RNA into A549 and MRC-5 cells"}]}, {"smiles": "CCCCC/C=C\\C/C=C\\CCCCCCCC(=O)O[C@H](COC(=O)CCCCCCCCCCCCCCC)COP(=O)([O-])OCC[N+](C)(C)C", "note": "[No. 12, (2-{[(2R)-3-(hexadecanoyloxy)-2-[(9Z,12Z)-octadeca-9,12-dienoyloxy]propylphosphonato]oxy}ethyl) trimethylazanium]", "values": [{"measurement": "abundance of sRNA of different sequences in the cells (Taqman probe)", "setting": "[1]; reverse evaporation method", "value": "could effectively facilitate nucleic acid molecules of different sequences entry into various cells"}]}]}
